Reference: patent US4803199A, “Pharmaceutically useful heterocyclic and carbocyclic acid esters and amides of alkylene bridged piperidines” (priority 1987, dated 1989)

Assays:
[1] = system: M receptors for serotonin; settings: isolated rabbit vagus nerve; cited from earlier work
[2] = target: T1, serotonin M receptor (Oryctolagus cuniculus, UniProt A0A5F9C9J3); assay: inhibition of the effect of serotonin on the isolated rabbit heart; settings: rabbit heart test, antagonism of serotonin; read-out: pA2 value (converted)
T1 construct: isolated rabbit heart; from tissue; host or cells: isolated rabbit heart
T1 sequence (A0A5F9C9J3 1-494): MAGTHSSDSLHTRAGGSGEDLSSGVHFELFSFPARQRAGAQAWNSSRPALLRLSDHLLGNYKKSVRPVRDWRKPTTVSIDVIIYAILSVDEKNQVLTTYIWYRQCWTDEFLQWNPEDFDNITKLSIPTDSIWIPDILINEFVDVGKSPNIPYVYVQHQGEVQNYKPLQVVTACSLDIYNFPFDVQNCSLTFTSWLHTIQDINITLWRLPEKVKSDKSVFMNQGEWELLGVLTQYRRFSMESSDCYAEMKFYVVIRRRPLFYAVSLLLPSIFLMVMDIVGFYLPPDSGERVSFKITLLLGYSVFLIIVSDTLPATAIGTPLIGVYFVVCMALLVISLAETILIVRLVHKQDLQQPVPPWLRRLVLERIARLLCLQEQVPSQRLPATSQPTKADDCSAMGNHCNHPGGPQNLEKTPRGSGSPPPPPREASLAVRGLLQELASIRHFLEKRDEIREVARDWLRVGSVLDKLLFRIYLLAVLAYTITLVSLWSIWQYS
Description: The serotonin M receptor antagonist activity is also indicated by inhibiting the effect of serotonin on the isolated rabbit heart according to the method of J. R. Fozard and A. T. Moborak Ali, European Journal of Pharmacology, (1978) 49, 109-112 at concentrations of 10^-11 to 10^-5 M of the compound of the invention. pD'2 or pA2 values may be calculated in the conventional manner.

[3] = system: M receptors; settings: blister base on forearm of human volunteers; cited from earlier work

CCN(CC)C(=O)[C@@H]1C=C2c3cccc4[nH]c(Br)c(c34)C[C@H]2N(C)C1 [BOL-148]
block of the action of serotonin on C fibre action potential amplitude [1]: not blocked

COc1cc(N(C)C)ccc1C(=O)O[C@@H]1C[C@H]2CC[C@@H](C1)N2Cc1ccccc1 [Example C-2]
Kb [2]: 0.01 nM

CCN(CC)C(=O)[C@@H]1C=C2c3cccc4[nH]cc(c34)C[C@H]2N(C)C1 [lysergic acid diethylamide]
inhibition of the algesic action of serotonin [3]: not inhibited

CC[C@@H](CO)NC(=O)[C@@H]1C=C2c3cccc4c3c(cn4C)C[C@H]2N(C)C1 [methysergide]
block of the action of serotonin on C fibre action potential amplitude [1]: not blocked

CSc1ccc2c(c1)C(N1CCN(C)CC1)Cc1ccccc1S2 (stereo not drawn) [metitepine]
block of the action of serotonin on C fibre action potential amplitude [1]: not blocked

CCN(CC)CCNC(=O)c1cc(Cl)c(N)cc1OC [metoclopramide]
Kb [2]: 79.4 nM
